Measured values taken from publication PMC6751662, “Pharmacological and functional similarities of the human neuropeptide Y system in C. elegans challenges phylogenetic views on the FLP/NPR system” (Cell Communication and Signaling : CCS, 2019).
Where two headings read alike, the source gives them in different places. Ends that are not written are not given here.

Assays:
Assay type in all cases: cell-based, C. elegans
NPR-4b = target: T1, NPR-4b (Caenorhabditis elegans, UniProt A0A078BTK0); test: cAMP reporter gene assay, Gi/o (inhibition of forskolin-induced cAMP), NPR-4b; conditions: for cAMP, x-fold of forskolin (mean), NPR-4b: 1 µM forskolin set to 1.00, mean of at least three independent experiments; for cAMP, x-fold of forskolin (mean), NPR-4b / Emax: transiently transfected HEK293 cells; for Emax: NPR-4b, forskolin (1 µM) set to 1.00, lower values correspond to high Gi/o activity, mean ± SEM of at least three independent experiments, SEM
T1 sequence (A0A078BTK0 1-376): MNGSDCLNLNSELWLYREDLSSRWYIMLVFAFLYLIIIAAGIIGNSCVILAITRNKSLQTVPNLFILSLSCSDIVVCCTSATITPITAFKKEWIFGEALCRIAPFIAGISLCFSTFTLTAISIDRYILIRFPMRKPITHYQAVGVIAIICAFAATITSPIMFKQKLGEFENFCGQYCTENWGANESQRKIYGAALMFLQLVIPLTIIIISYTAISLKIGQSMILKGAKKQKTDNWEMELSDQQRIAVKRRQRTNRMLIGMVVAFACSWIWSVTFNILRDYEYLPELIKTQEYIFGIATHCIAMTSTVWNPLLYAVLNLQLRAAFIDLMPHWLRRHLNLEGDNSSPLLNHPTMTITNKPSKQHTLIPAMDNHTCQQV
Protocol: (§1) Activation of Gs and Gi/o was assessed with a cAMP reporter gene assay. HEK293 cells grown to 70–80% confluency in 6-well plates were transiently co-transfected with vectors encoding the receptor and the cAMP reporter gene plasmid pGL4.29 [luc2P/CRE/Hygro] (Promega; 4 μg total, 1:1 ratio) using Metafectene Pro (3 μl/μg DNA; Biontex) following the manufacturer’s instructions. 16 h post transfection, the cells were seeded into white 384-well plates at a density of 20,000 cells/well. On the next day, the medium was removed and the cells were stimulated with 20 μl of peptide solution (or forskolin as positive control) in serum-free DMEM for 4 h. For measuring Gi/o activity, the peptide solutions additionally contained 1 μM forskolin to elevate cellular cAMP levels. After incubation, the luciferase substrate OneGlo in lysis buffer (Promega) was added and the luminescence was measured in a microplate reader Tecan Spark (Tecan).
(§2) For in vitro activation, data is presented as mean ± SEM of at least three independent experiments conducted in technical triplicate. […] For the C. elegans NPRs, we considered the strongest response elicited by any of the peptides downstream of a particular receptor as the receptor’s maximal signal. This may or may not be the biological maximum that can be reached by the ‘true’ endogenous agonist. For the human receptors, the response to the established endogenous agonist reflected the maximal signal.

NPR-5b = target: T2, NPR-5b (Caenorhabditis elegans, UniProt Q6F3C9); test: cAMP reporter gene assay, Gi/o (with forskolin), NPR-5b; set-up: Emax: unit not given here; conditions: transiently transfected HEK293 cells; for cAMP, x-fold of forskolin (mean), NPR-5b: 1 µM forskolin set to 1.00, values > 1 = cAMP stimulation, mean of at least three independent experiments; for Emax / EC50: NPR-5b; for Emax: forskolin (1 µM) set to 1.00, increase of cAMP, mean ± SEM of at least three independent experiments, SEM; for EC50: full concentration-response curve, with 1 µM forskolin, increase of cAMP, at least three independent experiments
T2 sequence (Q6F3C9 1-433): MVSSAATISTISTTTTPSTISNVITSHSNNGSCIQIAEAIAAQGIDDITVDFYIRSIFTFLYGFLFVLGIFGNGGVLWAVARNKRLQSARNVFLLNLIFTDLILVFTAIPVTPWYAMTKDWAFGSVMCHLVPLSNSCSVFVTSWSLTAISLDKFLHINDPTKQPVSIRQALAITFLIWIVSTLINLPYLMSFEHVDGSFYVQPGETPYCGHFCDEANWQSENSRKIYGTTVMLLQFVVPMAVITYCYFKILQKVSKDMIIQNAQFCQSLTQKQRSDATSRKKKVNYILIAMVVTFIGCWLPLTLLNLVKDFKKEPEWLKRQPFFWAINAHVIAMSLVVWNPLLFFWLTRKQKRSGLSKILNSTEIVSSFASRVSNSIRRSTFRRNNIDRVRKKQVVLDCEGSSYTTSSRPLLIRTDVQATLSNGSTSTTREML
Protocol: as §1, §2

NPR-6 = test: cAMP reporter gene assay, Gi/o (inhibition of forskolin-induced cAMP), NPR-6; conditions: 1 µM forskolin set to 1.00, transiently transfected HEK293 cells, mean of at least three independent experiments
Protocol: as §1, with “(Tecan). Data were analyzed with GraphPad Prism 5.03 and are shown as fold of basal or fold of forskolin in case of Gαi/o activity.” for “(Tecan).”
as §2

NPR-11 = target: T3, NPR-11 (Caenorhabditis elegans, UniProt Q18179); test: cAMP reporter gene assay, Gi/o (inhibition of forskolin-induced cAMP), NPR-11; conditions: for cAMP, x-fold of forskolin (mean), NPR-11: 1 µM forskolin set to 1.00, mean of at least three independent experiments; for Emax: HEK293, read-out: Emax ± SEM [%]
T3 construct: expressed in transfected cells; host or cells: HEK293, transient
T3 sequence (Q18179 1-402): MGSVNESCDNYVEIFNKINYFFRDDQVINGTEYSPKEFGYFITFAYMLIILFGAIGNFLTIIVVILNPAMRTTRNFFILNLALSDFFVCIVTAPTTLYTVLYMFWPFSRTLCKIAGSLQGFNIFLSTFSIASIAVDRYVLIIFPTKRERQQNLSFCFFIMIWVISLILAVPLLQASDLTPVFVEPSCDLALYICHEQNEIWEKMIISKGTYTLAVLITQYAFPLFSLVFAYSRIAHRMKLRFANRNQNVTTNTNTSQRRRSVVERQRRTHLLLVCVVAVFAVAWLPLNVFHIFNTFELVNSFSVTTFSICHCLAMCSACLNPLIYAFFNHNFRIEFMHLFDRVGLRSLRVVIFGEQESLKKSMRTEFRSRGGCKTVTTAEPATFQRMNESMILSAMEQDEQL
Protocol: as §1, with “(Tecan). Data were analyzed with GraphPad Prism 5.03 and are shown as fold of basal or fold of forskolin in case of Gαi/o activity.” for “(Tecan).”
as §2

[1] = 0.1 µM peptide, transiently transfected HEK293 cells
[2] = 10 µM peptide, transiently transfected HEK293 cells

| cAMP, x-fold of forskolin (mean), NPR-4b (NPR-4b; 0.1 µM peptide) | cAMP, x-fold of forskolin (mean), NPR-4b (NPR-4b; 10 µM peptide) | cAMP, x-fold of forskolin (mean), NPR-5b (NPR-5b; 0.1 µM peptide) | cAMP, x-fold of forskolin (mean), NPR-5b (NPR-5b; 10 µM peptide) | cAMP, x-fold of forskolin (mean), NPR-11 (NPR-11; [1]) | cAMP, x-fold of forskolin (mean), NPR-11 (NPR-11; [2]) | Emax ± SEM [%] (NPR-11; NPR-11, forskolin (1 µM) set to 1.00, lower values correspond to high Gi/o activity, transiently transfected HEK293 cells, mean ± SEM of at least three independent experiments, SEM) | Substance | cAMP, x-fold of forskolin (mean), NPR-6 (NPR-6; 0.1 µM peptide) | cAMP, x-fold of forskolin (mean), NPR-6 (NPR-6; 10 µM peptide) | EC50 (NPR-4b) [nM] | Emax (NPR-4b) [%] | Emax (NPR-5b) | EC50 (NPR-5b) [nM] | EC50 (NPR-11) [nM] | Emax (NPR-11; SEM) [%] | EC50 (NPR-11; SEM) [nM] |
| --- | --- | --- | --- | --- | --- | --- | --- | --- | --- | --- | --- | --- | --- | --- | --- | --- |
| 0.89 x-fold of forskolin | 0.34 x-fold of forskolin | 0.84 x-fold of forskolin | 2.19 x-fold of forskolin | 0.14 x-fold of forskolin | 0.06 x-fold of forskolin |  | TSGPLGNLAEELNGYSRKKGGFSFRF-NH2 [QRFP26, human pyroglutamylated RFamide peptide, 26 residues, reference compound] | 0.97 x-fold of forskolin | 0.93 x-fold of forskolin |  |  |  |  |  |  |  |
| 1.07 x-fold of forskolin | 0.57 x-fold of forskolin | 0.88 x-fold of forskolin | 1.61 x-fold of forskolin | 0.71 x-fold of forskolin | 0.20 x-fold of forskolin |  | EASAFGDIIGELKGKGLGGRMRF-NH2 [FLP-27, NPY-like C. elegans FLP with C-terminal RxRF/Ya signature] | 1.02 x-fold of forskolin | 0.88 x-fold of forskolin |  |  |  |  |  |  |  |
|  |  |  |  |  |  |  | GLGPRPLRF-NH2 [FLP-21] |  |  | 358 | -0.58 ± 0.07 | 3.8 ± 0.26 | 432 | 102 | -0.72 ± 0.06 |  |
| 1.10 x-fold of forskolin | 0.67 x-fold of forskolin | 0.90 x-fold of forskolin | 1.05 x-fold of forskolin | 0.90 x-fold of forskolin | 0.65 x-fold of forskolin |  | TPDINPAWYASRGIRPVGRF-NH2 [PrRP20, human prolactin-releasing peptide, 20 residues, reference compound] | 0.96 x-fold of forskolin | 1.19 x-fold of forskolin |  |  |  |  |  |  |  |
| 0.85 x-fold of forskolin | 0.79 x-fold of forskolin | 0.79 x-fold of forskolin | 0.85 x-fold of forskolin | 0.77 x-fold of forskolin | 0.21 x-fold of forskolin | -0.57 ± 0.06 | APLEGFEDMSGFLRTIDGIQKPRF-NH2 [FLP-33, NPY-like C. elegans FLP with C-terminal RxRF/Ya signature] | 0.86 x-fold of forskolin | 0.91 x-fold of forskolin |  |  |  |  |  |  |  |
| 1.05 x-fold of forskolin | 1.14 x-fold of forskolin | 0.86 x-fold of forskolin | 0.96 x-fold of forskolin | 0.37 x-fold of forskolin | 0.14 x-fold of forskolin |  | APLEPVYPGDNATPEQMAQYAADLRRYINMLTRPRY-NH2 [PP, human pancreatic polypeptide, reference compound] | 1.01 x-fold of forskolin | 1.00 x-fold of forskolin |  |  |  |  |  |  |  |
|  |  |  |  |  |  |  | RGPSGPLRF-NH2 [FLP-15-2] |  |  |  | -0.65 ± 0.07 | 3.28 ± 1.7 | 6650 | 998 | -0.76 ± 0.11 |  |
|  |  |  |  |  |  |  | SEVPGVLRF-NH2 [FLP-18-5] |  |  |  | -0.6 ± 0.05 | 3.6 ± 0.22 |  |  | -0.16 ± 0.08 | 79.4 |

| Substance | cAMP, x-fold of forskolin (mean), NPR-4b (NPR-4b; 0.1 µM peptide) | cAMP, x-fold of forskolin (mean), NPR-4b (NPR-4b; 10 µM peptide) | cAMP, x-fold of forskolin (mean), NPR-5b (NPR-5b; 0.1 µM peptide) | cAMP, x-fold of forskolin (mean), NPR-5b (NPR-5b; 10 µM peptide) | cAMP, x-fold of forskolin (mean), NPR-11 (NPR-11; [1]) | cAMP, x-fold of forskolin (mean), NPR-11 (NPR-11; [2]) | Emax ± SEM [%] (NPR-11; NPR-11, forskolin (1 µM) set to 1.00, lower values correspond to high Gi/o activity, transiently transfected HEK293 cells, mean ± SEM of at least three independent experiments, SEM) | cAMP, x-fold of forskolin (mean), NPR-6 (NPR-6; 0.1 µM peptide) | cAMP, x-fold of forskolin (mean), NPR-6 (NPR-6; 10 µM peptide) | EC50 (NPR-4b) [nM] | Emax (NPR-4b) [%] | Emax (NPR-5b) | EC50 (NPR-5b) [nM] | EC50 (NPR-11) [nM] | Emax (NPR-11; SEM) [%] | EC50 (NPR-11; SEM) [nM] |
| --- | --- | --- | --- | --- | --- | --- | --- | --- | --- | --- | --- | --- | --- | --- | --- | --- |
| PrRP31 [reference compound] | 1.05 x-fold of forskolin | 0.64 x-fold of forskolin | 0.91 x-fold of forskolin | 1.10 x-fold of forskolin | 1.06 x-fold of forskolin | 0.74 x-fold of forskolin |  | 0.96 x-fold of forskolin | 1.25 x-fold of forskolin |  |  |  |  |  |  |  |
